Tests used:
[1] = tested on: 5-lipoxygenase products (5-HETE) in RBL-1 cells; assay: Inhibition of 5-lipoxygenase products in RBL-1 cells (5-HETE production, HPLC); format: cell-based; conditions: Rattus norvegicus, 20 min, arachidonic acid + A-23187, 37° C., read-out: Percent inhibition of generation and release of 5-HETE; for inhibition at 10 µM: 10^-5 M test compound; for inhibition at 1 µM: 10^-6 M test compound
Experimental: RBL-1 cells (rat basophilic leukemia cells) (10^7 cells) were suspended in 0.5 ml of MCM (mast cell medium), the test solution (composed of 0.5 ml MCM, 50 μg arachidonic acid, 10 μg A-23187 and 10^-6 M or 10^-5 M quinone compound) was added, and the mixture was incubated at 37° C. for 20 minutes. Thereafter, 4 ml of ethanol and 1,4-dimethoxy-2-methyl-3-(3-methoxypropyl)naphthalene (internal standard) were added, and the mixture was shaken well, then allowed to stand at room temperature for 10 minutes, and centrifuged at 2,000 revolutions per minute for 10 minutes. The supernatant was collected and concentrated to about 200 μl under reduced pressure. A mixed solvent for high performance liquid chromatography [CH3 CN (1500)-CH3 OH (500)-water (1100)-acetic acid (2), adjusted to pH 5.6 with aqueous ammonia] was added to the concentrate to make up to 1 ml. A 200-μl portion of this solution was subjected to high performance liquid chromatography for assaying 5-HETE (5-hydroxyeicosatetraenoic acid).
The percentage of inhibition of 5-HETE production (IE) is expressed by (1-b/a)×100, where a is the peak height or area corrected relative to the internal standard peak for the quinone compound-free (control) test solution and b is the peak height or area corrected in relation to the internal standard peak for the quinone compound-containing test solution.

[2] = tested on: SRS-A generation and release; assay: Inhibitory effect on generation and release of SRS-A (sensitized guinea pig lung fragments, antigen egg white albumin); format: cell-based, guinea pigs (Hartley strain); conditions: Cavia porcellus; 10^-6 M test compound; number of experiments 3; lung fragments from sensitized guinea pigs
Experimental: The compounds obtained in accordance with the invention were assayed for the inhibitory effect on the generation of SRS-A by the method of Orange and Moore [J. Immunol., vol. 116, page 392 (1976)]. Thus, the test compound and antigen (egg white albumin) were simultaneously added to the lung fragments from guinea pigs (Hartley strain, male and female, weighing 300-350 g) sensitized with egg white albumin as the antigen. The quantity of SRS-A generated and released on that occasion was determined by the method of Brocklehurst [J. Physiol., vol. 151, pages 416-435 (1960)].

Compound: CCCCCC#CCC#CCC#CCC#CCCCC(=O)O [ETYA, 5,8,11,14eicosatetraynoic acid, reference compound]
- inhibition at 10 µM [1]: 39.4%
- inhibition at 1 µM [1]: 35.9%

Compound: CC1=C(C)C(=O)C(CCCCC#CCCCC#CC=O)=C(C)C1=O [Ia-1]
- inhibition at 1 µM [2]: 59 ± 15%
- inhibition at 10 µM [1]: 83.5%
- inhibition at 1 µM [1]: 71.6%

Compound: COC1=C(OC)C(=O)C(CCCCC#CCCCC#CC=O)=C(C)C1=O [Ia-2]
- inhibition at 1 µM [2]: 66 ± 6%
- inhibition at 10 µM [1]: 84.3%
- inhibition at 1 µM [1]: 72.3%

Compound: CC1=C(C)C(=O)C(CCCCC#CCCCC#CC(=O)O)=C(C)C1=O [Ia-3, 2,3,5-trimethyl-6-(11-carboxyundeca-5,10-diynyl)-1,4-benzoquinone]
- inhibition at 1 µM [2]: 58 ± 6%
- inhibition at 10 µM [1]: 86.7%
- inhibition at 1 µM [1]: 75.3%

Compound: COC1=C(OC)C(=O)C(CCCCC#CCCCC#CC(=O)O)=C(C)C1=O [Ia-4]
- inhibition at 1 µM [2]: 61 ± 8%
- inhibition at 10 µM [1]: 85.4%
- inhibition at 1 µM [1]: 70.6%

From patent publication US4489096A, “Quinone compounds, their production and use” (Takeda Chemical Industries, Ltd., priority 1982, dated 1984)
